“Also recorded” adds a separate entry of the source.
B1: the enzyme of the present invention: D-aminoacylase from the Defluvibacter sp. A131-3 strain obtained in Example 3; amino acid sequence of SEQ ID NO. 2 (protein)
chain: MAKSFDLVIRNGRVVDPETGHDAIADVAVSGGQIVAVGPSLGAGKREIDATGLVVSPGFIDLHAHGQSIPADRMQAFDGVTTALELEVGSLPVARWYEQQQAGGRVLNYGTAAAWIFARKAVMIGMELDGRLAPIEMMGAGSDDMRWSVDAATAPQTDDIVRLTRQALEEGALGIGIPHGYAAGAGVKEMTRICELAAEFDRPTYTHIPYMSNIDPRSSVEAYVQLIGLAGATGAHMHICHLNSTSLRDVEDAARLIAKAQAQGLPITTEAYPYGTGSTVMSARFFIDSDFAERTGTGYDAIQVVSSGKRFENRDELVAARAETPEALVLWHYLDTDNPHDQRLLDVSVMYPGGAIASDAVPWSNPDGTLYTGEEWPLPADKTSHPRSAGTYTRFLAQWVREREAVPLVEAIAKCALIPAQIVERCSDVFRRKGRLQPGCDADIVIFDLESVQDRSTFEDMHLAADGMVHVLVNGEAVIANGELVRDARSGRAIRSTPR
modifications: Defluvibacter sp.A131-3

Experiments:
[1] = tested on: D-aminoacylase from the Defluvibacter sp. A131-3 strain; assay: Effects of inhibitor on D-aminoacylase activity (D-valine produced, HPLC); type: biochemical; details: for Effects of inhibitors on activity: each at 5 mmol/L; for Relative activity (%): inhibitor 5 mmol/L, 0.5 mol/L N-acetyl-D-valine, enzyme 500 U, 40° C., 1 day, no addition of inhibitor = 100%
Experimental: The detection was conducted at 230 nm. The column was analyzed at a temperature of 30° C. The enzymatic activity was evaluated in terms of the ratio between the area of the acetyl compound and the free compound, and the resolution rate was expressed as a […]

[2] = tested on: D-aminoacylase from the Defluvibacter sp. A131-3 strain; assay: Effects of metal ions on D-aminoacylase activity (D-valine produced, HPLC); type: biochemical; details: for Effects of metal ions on activity: each at 1 mmol/L; for Relative activity (%): metal ion 1.0 mmol/L, 0.5 mol/L N-acetyl-D-valine, enzyme 500 U, 40° C., 1 day, no metal addition = 100%
[3] = tested on: D-aminoacylase from the Defluvibacter sp. A131-3 strain; assay: Substrate specificity, acylase activity measurement using D-/L-amino acid oxidase chromogenic reagent; type: biochemical; details: for Relative activity (% in relation to Met): activity of N-acetyl-D-methionine = 100; for Relative activity (% in relation to Met) / Relative activity (% in relation to Val): 100 mmol/L substrate solution, pH 8, 37° C., 30 minutes; for Relative activity (% in relation to Val): activity of N-acetyl-D-valine = 100; for Substrate specificity: whether the enzyme acts on the substrate: D- or L-amino acid oxidase detection
From the text: (4) Substrate specificity: Substrate specificity of the acylase of the present invention was confirmed by using the following N-acetyl-D-amino acids and N-acetyl-L-amino acids as the substrate and combining therewith the D-amino acid oxidase or the L-amino acid oxidase. The acylase of the present invention acts on the following N-acetyl-D-amino acids but not on the N-acetyl-L-amino acids.
In the measurement of the reactivity with the L-amino acids, an oxidase for L-amino acids is used instead of the D-amino acid oxidase in the activity measurement as will be described below.
4. Substrate specificity was determined by an activity measurement method using the chromogenic reagents for the D- and L-amino acid oxidases as described above.

[4] = tested on: D-aminoacylase from Defluvibacter sp. A131-3 strain; assay: Production of D-valine by resolution of N-acetyl-D,L-valine (HPLC); type: biochemical; details: 15% aqueous N-acetyl-D,L-valine, enzyme 200 U/mL, 40° C.
Experimental: It was then confirmed that the strains that had been selected by the chromogenic process show rapid reduction of the N-acetyl-D-valine and increase of the D-valine in an amount corresponding to the reduction of the N-acetyl-D-valine.
By using 15% aqueous solution of N-acetyl-D,L-valine as a substrate, D-aminoacylase from Defluvibacter sp. A131-3 strain was added with in an amount of 200 U per 1 ml of the aqueous solution of the substrate, and the reaction was allowed to proceed at 40° C. for 3 days. The rate of D-valine production by resolution from the N-acetyl-D,L-valine was measured by the HPLC method described in Example 1 (2).

[5] = Isoelectric point by two-dimensional electrophoresis for denatured system; type: physicochemical, Defluvibacter sp. A131-3; details: calculated from mobility of 2D-protein isoelectric point markers
Experimental: (3) Isoelectric point: Isoelectric point is measured on the basis of two-dimensional electrophoresis process by two-dimensional electrophoresis for denatured system (using IPG tube gel “Daiichi” 4-10 and PAG Large “Daiichi” 2D-10/20 manufactured by Daiichi Pure Chemicals Co., Ltd.). The pI value of 5.3 is calculated from mobility of 2D-protein isoelectric point markers (2D-protein isoelectric point markers “Daiichi” manufactured by Daiichi Pure Chemicals Co., Ltd.).
3. Protein isoelectric point was measured on the bases of two-dimensional electrophoresis process by two-dimensional electrophoresis for denatured system (using IPG tube gel “Daiichi” 4-10 and PAG Large “Daiichi” 2D-10/20 manufactured by Daiichi Pure Chemicals Co., Ltd.). The pI value of the enzyme of the present invention calculated from the mobility of the pI values 5.1, 5.2, 5.3, 5.4, 5.7, 6.0, 6.2, 6.4, 6.5, 6.7, 6.8, 7.0, and 7.1 of the 2D-protein isoelectric point markers (2D-protein isoelectric point markers “Daiichi” manufactured by Daiichi Pure Chemicals Co., Ltd.) was 5.3.

[6] = 30° C., 1 day
[7] = Optimal temperature of the enzyme; type: biochemical, Defluvibacter sp. A131-3; details: pH 8, 30 minutes

Molecule | Relative activity (% in relation to Met) [3] | Relative activity (% in relation to Val) [3] | Substrate specificity: whether the enzyme acts on the substrate [3] | other results
O[C@H](CS)[C@H](O)CS (racemic) [Dithiothreitol, dithiothreitol] |  |  |  | Effects of inhibitors on activity [1]: inhibited; Relative activity (%) [1]: 38%
OCCS [2-mercaptoethanol] |  |  |  | Effects of inhibitors on activity [1]: inhibited
O.O.O.O.O.O.[Cl-].[Cl-].[Co+2] [Cobalt (II) chloride, cobalt (II) chloride hexahydrate] |  |  |  | Effects of metal ions on activity [2]: inhibited; Relative activity (%) [2]: 27%
O=C(O)CN(CCN(CC(=O)O)CC(=O)O)CC(=O)O [Ethylenediamine tetraacetic acid, ethylenediamine tetraacetic acid] |  |  |  | Relative activity (%) [1]: 112%
NC(=O)CI [Iodacetamide, iodacetamide] |  |  |  | Relative activity (%) [1]: 107%
N[C@@H](CS)C(=O)O [L-cysteine] |  |  |  | Effects of inhibitors on activity [1]: inhibited
O.O.O.O.[Cl][Mn][Cl] [Manganese chloride, manganese (II) chloride tetrahydrate] |  |  |  | Effects of metal ions on activity [2]: inhibited; Relative activity (%) [2]: 48%
CC(=O)N[C@H](CCC(=O)O)C(=O)O [N-Ac-D-Glu, N-acetyl-D-glutamic acid] | 0% | 0% |  | 
CC(=O)N[C@H](CC(C)C)C(=O)O [N-Ac-D-Leu, N-acetyl-D-leucine] | 555% | 73% | to some extent; also recorded: acting on | 
CSCC[C@@H](NC(C)=O)C(=O)O [N-Ac-D-Met, N-acetyl-D-methionine] | 100% | 13% | to some extent; also recorded: acting on | 
CC(=O)N[C@H](Cc1ccccc1)C(=O)O [N-Ac-D-Phe, N-acetyl-D-phenylalanine] | 37% | 4.8% | to some extent; also recorded: acting on | 
CC(=O)N[C@H](Cc1c[nH]c2ccccc12)C(=O)O [N-Ac-D-Trp, N-acetyl-D-tryptophan] | 1.1% | 0.2% | to some extent | Substrate specificity: whether the enzyme acts on the substrate ([3]; listed as N-acetyl-D-triptophan): acting on
CC(=O)N[C@H](Cc1ccc(O)cc1)C(=O)O [N-Ac-D-Tyr, N-acetyl-D-tyrosine] | 8.4% | 1.1% | to some extent; also recorded: acting on | 
CC(=O)N[C@@H](C(=O)O)C(C)C [N-Ac-D-Val, N-acetyl-D-valine] | 762% | 100% | acted most effectively; also recorded: acting on | 
CC(=O)N[C@@H](CCC(=O)O)C(=O)O [N-Ac-L-Glu, N-acetyl-L-glutamic acid] | 0% | 0% |  | 
CC(=O)N[C@@H](CC(C)C)C(=O)O [N-Ac-L-Leu, N-acetyl-L-leucine] | 0% | 0% | does not act on | 
CSCC[C@H](NC(C)=O)C(=O)O [N-Ac-L-Met, N-acetyl-L-methionine] | 0% | 0% | does not act on | 
CC(=O)N[C@@H](Cc1ccccc1)C(=O)O [N-Ac-L-Phe, N-acetyl-L-phenylalanine] | 0% | 0% | does not act on | 
CC(=O)N[C@@H](Cc1c[nH]c2ccccc12)C(=O)O [N-Ac-L-Trp, N-acetyl-L-tryptophan] | 0% | 0% | does not act on | 
CC(=O)N[C@@H](Cc1ccc(O)cc1)C(=O)O [N-Ac-L-Tyr, N-acetyl-L-tyrosine] | 0% | 0% | does not act on | 
CC(=O)N[C@H](C(=O)O)C(C)C [N-Ac-L-Val, N-acetyl-L-valine] | 0% | 0% | does not act on | Decomposition of the L-form by the enzyme [4]: not decomposed at all
CCN1C(=O)C=CC1=O [N-ethylmaleimide] |  |  |  | Relative activity (%) [1]: 100%
O.O.O.O.O.O.[Cl][Ni][Cl] [Nickel chloride, nickel chloride hexahydrate] |  |  |  | Effects of metal ions on activity [2]: inhibited; Relative activity (%) [2]: 20%
c1cnc2c(c1)ccc1cccnc12 [O-phenanthroline, o-phenanthroline] |  |  |  | Effects of inhibitors on activity [1]: inhibited; Relative activity (%) [1]: 53%; Relative activity (%) ([1]; listed as o-phenanthroline): less than 60%
[Cl-].[K+] [Potassium chloride, potassium chloride] |  |  |  | Relative activity (%) [2]: 92%
[Cl-].[Na+] [Sodium chloride, sodium chloride] |  |  |  | Relative activity (%) [2]: 99%
[Na+].[Na+].[O]=[Mo](=[O])([O-])[O-] [Sodium molybdate, sodium molybdate] |  |  |  | Relative activity (%) [2]: 105%
[Cl-].[Cl-].[Zn+2] [Zinc chloride, zinc chloride] |  |  |  | Effects of metal ions on activity [2]: inhibited; Relative activity (%) [2]: 31%
iron (III) chloride hexahydrate |  |  |  | Relative activity (%) [2]: 88%
B1 |  |  |  | Isoelectric point (pI value) [5]: 5.3; Residual activity at pH 6 or pH 11 [6]: not 0%; pH at which the enzyme is most stable [6]: ~9 pH; Optimal temperature [7]: 37 °C
